Experimental data from article PMC6336783, “Crystal structure of the multidrug resistance regulator RamR complexed with bile acids” (Scientific Reports, 2019).

T1: RamR (Salmonella typhimurium, UniProt Q8ZR43)
T1 construct: made in house
T1 sequence (Q8ZR43 1-193): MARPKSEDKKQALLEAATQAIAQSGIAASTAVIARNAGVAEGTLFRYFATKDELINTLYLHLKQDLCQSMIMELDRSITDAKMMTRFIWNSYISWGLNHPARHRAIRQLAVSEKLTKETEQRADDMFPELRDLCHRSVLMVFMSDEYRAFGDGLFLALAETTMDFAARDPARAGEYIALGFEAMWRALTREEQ

B1: RamR (natural protein, Salmonella enterica serovar Typhimurium)
chain: ARPKSEDKKQALLEAATQAIAQSGIAASTAVIARNAGVAEGTLFRYFATKDELINTLYLHLKQDLCQSMIMELDRSITDAKMMTRFIWNSYISWGLNHPARHRAIRQLAVSEKLTKETEQRADDMFPELRDLCHRSVLMVFMSDEYRAFGDGLFLALAETTMDFAARDPARAGEYIALGFEAMWRALTREEQ
notes: RamR, TetR-family transcriptional repressor of ramA, Salmonella enterica serovar Typhimurium; ligand-free structure PDB 3VVX; also called multidrug resistance regulator RamR; local transcriptional repressor RamR

How the values were obtained:
[1] = test system: ramA mRNA levels in ∆ramR Salmonella strain; assay type: cell-based, Salmonella enterica serovar Typhimurium; conditions: LB broth with 5 mM bile acid, qRT-PCR
Description: (§1) The bacterial strains and the plasmids used in this study are listed in Supplementary Table 3. The S. enterica serovar Typhimurium strains were the wild-type strain ATCC14028s[21] and its ∆ramR mutant (which was produced as described previously)[22]. Bacterial strains were grown at 37 °C in Luria–Bertani broth supplemented, when appropriate, with ampicillin (100 µg/ml), kanamycin (25 µg/ml) or chloramphenicol (25 µg/ml).
(§2) Bacteria were grown until mid-log phase (OD600 of 0.6) and harvested by centrifugation. Pelleted cells were stabilized with RNAprotect Bacteria Reagent (Qiagen) and stored at −80 °C until needed. Total RNA was extracted using an RNeasy Mini kit (Qiagen). Removal of residual genomic DNA was performed using a Turbo DNA-free kit (Ambion) and checked by negative PCR amplification of the chromosomal sequence. RNA integrity was verified by electrophoresis on a 1% agarose gel. Total RNA (1.5 µg) was reverse-transcribed using random hexamers and the Superscript III First Strand Synthesis System (Applied Biosystems). The expression level of each gene of interest was calculated as the average of the results from three independent cDNA samples. For each cDNA sample and each gene, qRT-PCR runs were performed in duplicated wells and the primers used for qRT-PCR are listed in Supplementary Table 4. The cycling conditions were: 95 °C for 5 min followed by 40 cycles of 95 °C for 10 s and then 60 °C for 15 s. After each run, amplification specificity and the absence of primer dimers were verified using a dissociation curve, acquired by heating the PCR products from 60 °C to 95 °C. The relative quantities of transcripts were determined using a standard curve and normalized against the geometric mean of three reference genes (gmk, gyrB and rrs).

[2] = molecular target: T1, RamR; test: SPR binding of bile acids to immobilized RamR; parameters: species or system Salmonella enterica serovar Typhimurium
Description: Because cholic and chenodeoxycholic acids induce ramA in a RamR-dependent manner, we hypothesized that these compounds are recognized by RamR. To test the possibility that cholic and chenodeoxycholic acids may bind to RamR, we employed surface plasmon resonance (SPR) analysis using a Biacore T200 instrument (GE Healthcare).
Dissociation was also recorded for 2 min.

[3] = molecular target: interaction between RamR and PramA (Salmonella typhimurium, UniProt Q8ZR43); test: SPR inhibition of RamR binding to the 100-bp DNA fragment with the RamR-binding site; conditions: for inhibition at 500 µM: read-out: inhibition of the interaction between RamR and the DNA fragment
[4] = test system: ramA mRNA levels in wild-type S. Typhimurium strain; assay type: cell-based, Salmonella enterica serovar Typhimurium; conditions: LB broth with 5 mM bile acid, qRT-PCR
Description: as §1, §2

[5] = molecular target: the molecule itself; test: crystal structure; co-crystals of RamR with a 5-fold molar excess of cholic or chenodeoxycholic acid; hanging drops, vapor diffusion, 25 °C; 20 mM sodium phosphate (pH 6.6), 75 mM NaCl, 2 mM DTT

Row | Molecule | fold difference in ramA mRNA levels relative to the control in the same strain [1] | Kd [2] | IC50 [3] | inhibition at 500 µM [3] | fold difference in ramA mRNA levels relative to the control in the same strain [4] | binding result [5]
1 | C[C@H](CCC(=O)O)[C@H]1CC[C@H]2[C@@H]3[C@H](O)C[C@@H]4C[C@H](O)CC[C@]4(C)[C@H]3CC[C@]12C [chenodeoxycholic acid, 3α, 7α-dihydroxy-5β-cholan-24-oic acid] | 0.8 fold | 65.3 µM | 19.2 µM | ≥ 90% |  | 
2 | C[C@H](CCC(=O)O)[C@H]1CC[C@H]2[C@@H]3[C@H](O)C[C@@H]4C[C@H](O)CC[C@]4(C)[C@H]3C[C@H](O)[C@]12C [cholic acid, 3α, 7α, 12α-trihydroxy-5β-cholan-24-oic acid] | 1.6 fold | 60.5 µM | 33 µM | ≥ 90% |  | 
3 | C[C@H](CCC(=O)O)[C@H]1CC[C@H]2[C@@H]3CC[C@@H]4C[C@H](O)CC[C@]4(C)[C@H]3C[C@H](O)[C@]12C [deoxycholic acid, 3α, 12αdihydroxy-5β-cholan-24-oic acid] | 2.7 fold |  | 318 µM | ~50% | 1.7 fold | 
4 | B1 |  |  |  |  |  | binds
